From US20230312587A1, “PTERIDINONE COMPOUNDS AND USES THEREOF” (Vertex Pharmaceutical Incorporated, priority 2018, published 2023) come the findings set out here.

Read-outs that look alike come from different tables or passages of the source.

One test addresses Plk1 (Homo sapiens (Human), UniProt P53350). Description: PLK1 inhibition assay (radioactive-phosphate incorporation). The test is classed as biochemical. Particulars: Ki(app), read-out: PLK1 - 33P.ENZ - CB 10 Ki. In outline:
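Radioactive-phosphate incorporation with 15 nM Plk1 and 9 µM Sam68 substrate, 20 µM [γ-33P]ATP, in 25 mM HEPES pH 7.5, 10 mM MgCl2, 25 mM NaCl, 2 mM DTT, 1.5% DMSO, room temperature, 45 min. Stopped with TCA/cold ATP, filtered, scintillation counted. Ki(app) from non-linear regression of background-corrected initial rates.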

In a further test the test system is HepG2 WFS1 KO. Description: In vitro cell viability (CellTiter-Glo), HepG2 WFS1 KO. It is filed as cell-based. Particulars: HepG2 WFS1 knockout, 96 hours, read-out: HepG2 WFS1 KO viability. The source says: A double cleavage strategy was employed to remove large fragments from the WFS1 locus. Suitable target sites in WFS1 exon 8 were first selected using CRISPR design software to rank suitable target sites and computationally predict off-target sites for each intended target. Six top guide RNA sequences are identified and screened for activity using the Surveyor Mutation Detection Kit (Integrated DNA Technologies). Then, the best 2 guide RNAs were cloned into GeneArt OFP CRISPR nuclease vectors (Thermofisher, Cat #A21174) separately and co-transfected into HepG2 cells using nucleofection (4D Nucleofector X, Lonza). Cells were sorted by FACS 48 hrs later to enrich for the OFP positive cell population. The OFP positive cell population were plated into 96-well plates at 0.5-5 cells/well to isolate clonal cell lines. After allowing cells to expand for 2-3 weeks, plates were inspected for presence of colonies. When colonies became more than 70% confluent, they were dissociated with trypsin and were further expanded. Cell clones with homozygous double cleavage of WFS1 exon 8 were detected with PCR and confirmed with DNA sequencing.
HEK293 cells containing empty pCLPCx vector (HEK293 empty), HEK293 cells stably over-expression WFS1 (HEK293 WFS1), HepG2, and HepG2 cells where WFS1 was depleted via CRISPR/Cas9 (HepG2 WFS1 KO) cells were plated into 96-well black plates (Corning, product #3904) in 100 microliters of complete DMEM cell culture media [DMEM (Life Technologies, product #11960-051) media supplemented with 10% FBS (Hyclone, catalog #SH30071.03), antimycotic/antibiotic (Life Technologies, product #15240-062), and Glutamax (Life Technologies, product #35050-061)] at 1,000 (HEK293) or 5,000 (HepG2) cells per well. Cells were allowed to attach and grow overnight, after which compounds are added at various concentrations. Cell viability was assessed 96 hrs after compound addition with CellTiter-Glo reagent (Promega, catalog #G7570) according to manufacturer's protocol and measurement on a Pherastar luminescence plate reader (BMG Labtech).
To determine the effect of WFS1 depletion on compound mediated inhibition of cell viability, parental HepG2 cells and HepG2 cells where WFS1 was deleted by CRISPR/Cas9 were exposed to increasing concentrations of either Compound 136 or Compound 253 for 96 hours after which time viability was determined using Cell Titer Glo reagent (Promega). […] The IC50s for the viability of both the HepG2 parental and WFS1 knockout cells are summarized in Table 47: A<0.5 μM; 0.5 μM≤<2.0 μM; 2.0 μM≤C<10.0 μM; D≥[…].
For orientation: ATP-based viability assays read luminescence as a measure of living cells.

Chain of Plk1 (P53350 whole entry, species assumed): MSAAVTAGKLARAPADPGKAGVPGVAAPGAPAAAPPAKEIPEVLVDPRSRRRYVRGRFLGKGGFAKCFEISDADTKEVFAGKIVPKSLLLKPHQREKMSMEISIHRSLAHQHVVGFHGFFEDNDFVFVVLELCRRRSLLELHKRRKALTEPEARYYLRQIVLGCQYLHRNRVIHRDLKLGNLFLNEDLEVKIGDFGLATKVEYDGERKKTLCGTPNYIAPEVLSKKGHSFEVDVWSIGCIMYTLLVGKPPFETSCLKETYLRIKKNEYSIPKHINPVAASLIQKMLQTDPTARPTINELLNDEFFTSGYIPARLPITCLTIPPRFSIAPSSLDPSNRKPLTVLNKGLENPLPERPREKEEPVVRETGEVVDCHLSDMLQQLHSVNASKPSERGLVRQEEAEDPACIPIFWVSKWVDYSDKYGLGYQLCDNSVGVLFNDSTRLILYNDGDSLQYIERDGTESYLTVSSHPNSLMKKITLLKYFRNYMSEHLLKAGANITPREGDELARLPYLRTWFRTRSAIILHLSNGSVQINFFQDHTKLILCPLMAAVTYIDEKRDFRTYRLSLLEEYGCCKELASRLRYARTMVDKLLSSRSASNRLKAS

As to `Cc1nc(N[C@@H]2CC[C@@H](n3ccc(C(F)(F)F)n3)C2)nc2c1NC(=O)[C@H](C)N2C` (single isomer, unassigned) [Compound 311], the Ki at Plk1 was more than 4 µM.

In the case of `Cc1nc(NCc2cnn(Cc3ccc(C(F)(F)F)nc3[C@@H](C)O)c2)nc2c1NC(=O)[C@H](C)N2C` (single isomer, unassigned) [Compound 420], the IC50 in the test on HepG2 WFS1 KO (Homo sapiens) was not below 10 µM.

For the compound `Cc1nc(NCc2cnn(Cc3ccc(F)cc3)c2)nc2c1NC(=O)[C@H](C)N2C` [Compound 4, (7S)-2-(((1-(4-fluorobenzyl)-1H-pyrazol-4-yl)methyl)amino)-4,7,8-trimethyl-7,8-dihydropteridin-6(5H)-one], the Ki on Plk1 was more than 4 µM.

Regarding `Cc1nc(NCc2cnn(C[C@H](C)c3ccc(F)cc3)c2)nc2c1NC(=O)[C@H](C)N2C` [Compound 96, (7S)-2-(((1-((R)-2-(4-fluorophenyl)propyl)-1H-pyrazol-4-yl)methyl)amino)-4,7,8-trimethyl-7,8-dihydropteridin-6(5H)-one], the IC50 with HepG2 WFS1 KO (Homo sapiens) was not below 10 µM.

Take `Cc1nc(NCc2cnn(CCC3CCOCC3)c2)nc2c1NC(=O)[C@H](C)N2C` [Compound 115, (7S)-4,7,8-trimethyl-2-(((1-(2-(tetrahydro-2H-pyran-4-yl)ethyl)-1H-pyrazol-4-yl)methyl)amino)-7,8-dihydropteridin-6(5H)-one]: the IC50 in the test with HepG2 WFS1 KO (Homo sapiens) was not below 10 µM.

As to `CCOc1ccc(CCn2cc(CNc3ncc4c(n3)N(C)[C@@H](C)C(=O)N4)cn2)cc1` [Compound 121, (7S)-2-(((1-(4-ethoxyphenethyl)-1H-pyrazol-4-yl)methyl)amino)-7,8-dimethyl-7,8-dihydropteridin-6(5H)-one], in the test with HepG2 WFS1 KO (Homo sapiens), the IC50 is not below 10 µM.

With `Cc1nc(NCc2cnn(C3CCN(C(=O)c4ccc(F)cc4)CC3)c2)nc2c1NC(=O)[C@H](C)N2C` [Compound 125, (7S)-2-(((1-(1-(4-Fluorobenzoyl)piperidin-4-yl)-1H-pyrazol-4-yl)methyl)amino)-4,7,8-trimethyl-7,8-dihydropteridin-6(5H)-one], the IC50 in the test on HepG2 WFS1 KO (Homo sapiens) is not below 10 µM.

Consider `Cc1nc(NCc2cnn(CC(C)(O)c3ccc(F)cc3)c2)nc2c1NC(=O)[C@H](C)N2C` (stereo partly drawn) [Compound 128, (7S)-2-(((1-(2-(4-fluorophenyl)-2-hydroxypropyl)-1H-pyrazol-4-yl)methyl)amino)-4,7,8-trimethyl-7,8-dihydropteridin-6(5H)-one], for which the IC50 in the test with HepG2 WFS1 KO (Homo sapiens) was not below 10 µM.

In the case of `Cc1nn(C)cc1Cn1cc(CNc2nc(C)c3c(n2)N(C)[C@@H](C)C(=O)N3)cn1` [Compound 139, (7S)-2-(((1-((1,3-dimethyl-1H-pyrazol-4-yl)methyl)-1H-pyrazol-4-yl)methyl)amino)-4,7,8-trimethyl-7,8-dihydropteridin-6(5H)-one], the IC50 in the test on HepG2 WFS1 KO (Homo sapiens) was not below 10 µM.

`Cc1nc(NCc2cnn(Cc3cc(C(F)(F)F)nn3C)c2)nc2c1NC(=O)[C@H](C)N2C` [Compound 160, (7S)-4,7,8-trimethyl-2-(((1-((1-methyl-3-(trifluoromethyl)-1H-pyrazol-5-yl)methyl)-1H-pyrazol-4-yl)methyl)amino)-7,8-dihydropteridin-6(5H)-one]: the Ki at Plk1 is more than 4 µM.

For the compound `Cc1ncc(Cn2cc(CNc3nc(C)c4c(n3)N(C)[C@@H](C)C(=O)N4)cn2)cn1` [Compound 163, (7S)-4,7,8-trimethyl-2-(((1-((2-methylpyrimidin-5-yl)methyl)-1H-pyrazol-4-yl)methyl)amino)-7,8-dihydropteridin-6(5H)-one], the IC50 in the test with HepG2 WFS1 KO (Homo sapiens) was not below 10 µM.

For the compound `Cc1cnc(C(F)(F)F)nc1-n1cc(CNc2ncc3c(n2)N(C)[C@@H](C)C(=O)N3)cn1` [Compound 164, (7S)-7,8-dimethyl-2-(((1-(5-methyl-2-(trifluoromethyl)pyrimidin-4-yl)-1H-pyrazol-4-yl)methyl)amino)-7,8-dihydropteridin-6(5H)-one], the IC50 in the test with HepG2 WFS1 KO (Homo sapiens) is not below 10 µM.

With `Cc1nc(NCc2cnn(Cc3ccc(F)cc3)c2)nc2c1NC(=O)C1(CC1)N2` [Compound 222, 2′-(((1-(4-fluorobenzyl)-1H-pyrazol-4-yl)methyl)amino)-4′-methyl-5′,8′-dihydro-6′H-spiro[cyclopropane-1,7′-pteridin]-6′-one], the IC50 in the test on HepG2 WFS1 KO (Homo sapiens) is not below 10 µM.

For the compound `Cc1nc(N[C@H]2C[C@H](Oc3ccnc(C(F)(F)F)c3)C2)nc2c1NC(=O)[C@H](C)N2C` [Compound 335, (7S)-4,7,8-trimethyl-2-((trans-3-((2-(trifluoromethyl)pyridin-4-yl)oxy)cyclobutyl)amino)-7,8-dihydropteridin-6(5H)-one], the Ki at Plk1 is more than 4 µM.

With `Cc1nc(NCc2cnn(Cc3ccc(Cl)nc3)c2)nc2c1NC(=O)[C@H](C(C)C)N2C` [Compound 409, (7S)-2-(((1-((6-chloropyridin-3-yl)methyl)-1H-pyrazol-4-yl)methyl)amino)-7-isopropyl-4,8-dimethyl-7,8-dihydropteridin-6(5H)-one], the IC50 in the test on HepG2 WFS1 KO (Homo sapiens) was not below 10 µM.

Regarding `Cc1nc(NCc2cn(Cc3ccc(C(F)(F)F)nc3)nc2Br)nc2c1NC(=O)[C@H](C)N2C` [Compound 412, (S)-2-(((3-bromo-1-((6-(trifluoromethyl)pyridin-3-yl)methyl)-1H-pyrazol-4-yl)methyl)amino)-4,7,8-trimethyl-7,8-dihydropteridin-6(5H)-one], the IC50 with HepG2 WFS1 KO (Homo sapiens) was not below 10 µM.

In the case of `Cc1nc(NCc2cnn(Cc3cncc(F)c3)c2)nc2c1NC(=O)[C@H](C(C)C)N2C` [Compound 415, (7S)-2-(((1-((5-fluoropyridin-3-yl)methyl)-1H-pyrazol-4-yl)methyl)amino)-7-isopropyl-4,8-dimethyl-7,8-dihydropteridin-6(5H)-one], the IC50 in the test with HepG2 WFS1 KO (Homo sapiens) was not below 10 µM.

With `Cc1nc(NCc2cnn(Cc3ccc(C(F)(F)F)nc3C(C)(C)O)c2)nc2c1NC(=O)[C@H](C)N2C` [Compound 416, (7S)-2-(((1-((2-(2-hydroxypropan-2-yl)-6-(trifluoromethyl)pyridin-3-yl)methyl)-1H-pyrazol-4-yl)methyl)amino)-4,7,8-trimethyl-7,8-dihydropteridin-6(5H)-one], the IC50 in the test on HepG2 WFS1 KO (Homo sapiens) is not below 10 µM.

Consider `Cc1nc(NCc2cnn(Cc3ccc(C(F)(F)F)nc3Cl)c2)nc2c1NC(=O)[C@H](C)N2C` [Compound 418, (7S)-2-(((1-((2-chloro-6-(trifluoromethyl)pyridin-3-yl)methyl)-1H-pyrazol-4-yl)methyl)amino)-4,7,8-trimethyl-7,8-dihydropteridin-6(5H)-one], for which, in the test on HepG2 WFS1 KO (Homo sapiens), the IC50 is not below 10 µM.

For the compound `Cc1nc(NCc2cnn(Cc3ccc(C(F)(F)F)nc3C(C)O)c2)nc2c1NC(=O)[C@H](C)N2C` (stereo partly drawn) [Compound 419, (7S)-2-(((1-((2-((S)-1-hydroxyethyl)-6-(trifluoromethyl)pyridin-3-yl)methyl)-1H-pyrazol-4-yl)methyl)amino)-4,7,8-trimethyl-7,8-dihydropteridin-6(5H)-one], the IC50 in the test on HepG2 WFS1 KO (Homo sapiens) is not below 10 µM.

As for `Cc1nc(NCc2cnn(Cc3ccc(F)nc3)c2)nc2c1NC(=O)[C@H](C1CC1)N2C` [Compound 421, (7S)-7-cyclopropyl-2-(((1-((6-fluoropyridin-3-yl)methyl)-1H-pyrazol-4-yl)methyl)amino)-4,8-dimethyl-7,8-dihydropteridin-6(511)-one], the IC50 in the test with HepG2 WFS1 KO is not below 10 µM.

`Cc1cc(F)ncc1Cn1cc(CNc2nc(C)c3c(n2)N(C)[C@@H](C(C)C)C(=O)N3)cn1` [Compound 423, (7S)-2-(((1-((6-fluoro-4-methylpyridin-3-yl)methyl)-1H-pyrazol-4-yl)methyl)amino)-7-isopropyl-4,8-dimethyl-7,8-dihydropteridin-6(5H)-one]: the IC50 in the test on HepG2 WFS1 KO (Homo sapiens) was not below 10 µM.

As to `Cc1nc(NCc2cnn(Cc3cnc(Cl)c(F)c3)c2)nc2c1NC(=O)[C@H](C(C)C)N2C` [Compound 424, (7S)-2-(((1-((6-chloro-5-fluoropyridin-3-yl)methyl)-1H-pyrazol-4-yl)methyl)amino)-7-isopropyl-4,8-dimethyl-7,8-dihydropteridin-6(5H)-one], the IC50 with HepG2 WFS1 KO (Homo sapiens) is not below 10 µM.

On to `Cc1ncc(Cn2cc(CNc3nc(C)c4c(n3)N(C)[C@@H](C(C)C)C(=O)N4)cn2)cc1F` [Compound 425, (7S)-2-(((1-((5-fluoro-6-methylpyridin-3-yl)methyl)-1H-pyrazol-4-yl)methyl)amino)-7-isopropyl-4,8-dimethyl-7,8-dihydropteridin-6(5H)-one], for which, in the test on HepG2 WFS1 KO (Homo sapiens), the IC50 is not below 10 µM.
